The source of these data is publication PMC9860317, “Regulation of the DEAH/RHA helicase Prp43 by the G-patch factor Pfa1” (Proceedings of the National Academy of Sciences of the …, 2022).

One assay has as its target T1, ctPrp43 (Prp43) (Thermochaetoides thermophila, UniProt G0RY84).
T1 construct: gene CTHT_0005780; expressed in E. coli Rosetta II as N-terminal GST fusion with C-terminal His6 or Strep tag; SEC purified; borders in SI
Briefly: coupled ATPase assay, NADH absorption, Michaelis-Menten titration. It is filed as biochemical. The settings on record: no Pfa1(gp), no ssRNA. From the text: coupled ATPase assay, NADH absorption, Michaelis-Menten titration on ctPrp43 (Prp43) | Michaelis–Menten titration and table with ATP turnover numbers (kcat) and dissociation constants (KM)

For another assay, the target named is T2, ctPrp43–Pfa1(gp) complex (Thermochaetoides thermophila, UniProt G0RY84).
T2 construct: gene CTHT_0005780; Prp43 with C-terminal His6 or Strep tag plus isolated G-patch motif of Pfa1; both from E. coli Rosetta II as GST fusions; borders in SI; with G-patch protein Pfa1 (G-patch motif)
The description is as above. The assay is classed as biochemical. The settings on record: with Pfa1(gp), no ssRNA. The text has this:
coupled ATPase assay, NADH absorption, Michaelis-Menten titration on ctPrp43–Pfa1(gp) complex | showing the stimulation of Prp43 ATPase activity by Pfa1(gp) and ssRNA

T1 sequence (G0RY84 entry or part of it): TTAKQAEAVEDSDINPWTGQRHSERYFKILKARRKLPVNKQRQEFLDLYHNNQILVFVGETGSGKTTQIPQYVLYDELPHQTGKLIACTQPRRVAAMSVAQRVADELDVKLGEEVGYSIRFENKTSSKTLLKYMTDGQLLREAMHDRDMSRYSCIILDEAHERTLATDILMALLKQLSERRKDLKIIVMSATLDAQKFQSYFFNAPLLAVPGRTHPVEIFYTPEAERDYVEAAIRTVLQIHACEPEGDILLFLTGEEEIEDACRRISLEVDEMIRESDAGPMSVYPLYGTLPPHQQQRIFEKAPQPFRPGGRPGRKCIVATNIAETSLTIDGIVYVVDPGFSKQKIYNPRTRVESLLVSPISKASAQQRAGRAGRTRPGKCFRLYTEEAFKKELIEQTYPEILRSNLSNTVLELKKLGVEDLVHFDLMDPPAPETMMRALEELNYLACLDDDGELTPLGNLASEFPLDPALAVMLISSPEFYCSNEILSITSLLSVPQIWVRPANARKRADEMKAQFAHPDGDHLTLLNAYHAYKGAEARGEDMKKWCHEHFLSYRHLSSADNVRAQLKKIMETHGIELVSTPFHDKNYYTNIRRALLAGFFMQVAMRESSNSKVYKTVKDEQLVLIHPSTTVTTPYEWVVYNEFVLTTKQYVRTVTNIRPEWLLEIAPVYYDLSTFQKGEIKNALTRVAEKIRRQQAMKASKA
T2 sequence (G0RY84 entry or part of it, one chain of several): as the sequence (G0RY84 entry or part of it) above

For `Nc1ncnc2c1ncn2[C@@H]1O[C@H](COP(=O)(O)OP(=O)(O)OP(=O)(O)O)[C@@H](O)[C@H]1O` [ATP], the Michaelis constant (Km) on ctPrp43 (Prp43) was 29.5 ± 6 µM; at ctPrp43–Pfa1(gp) complex it was 4.5 ± 0.3 µM.
